# Assay results reported in patent US9770026B2, “Substituted pyrimidine compound and uses thereof” (Shenyang Sinochem Agrochemicals R&D Co., Ltd., priority 2012, dated 2017).
# What was measured:
# carmine spider mite = assay: bioactivity test against carmine spider mite, airbrush spray; format: in vivo; conditions: Tetranychus cinnabarinus, 72 h, contrastive test, read-out: Insecticidal activity against carmine spider mite (% ); for pest or weed control at 10 µg/mL: 10 mg/L; for pest or weed control at 100 µg/mL: 100 mg/L; for pest or weed control at 600 µg/mL: 600 mg/L
# In short: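 Broadbean seedlings infested with adult mites were sprayed with compound (acetone/methanol stock diluted in 0.1% Tween 80 water) by airbrush at 0.7 kg/cm^2, 0.5 ml. Three replicates were run. Mortality was scored after 72 hrs.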
# [1] = tested on: Green peach aphids (Myzus Persicae Sulzer); assay: bioactivity test against green peach aphid, airbrush foliar spray; format: in vivo; conditions: Myzus persicae, foliar, 48 h, contrastive test, read-out: Insecticidal activity against peach aphid (%); for pest or weed control at 10 µg/mL: 10 mg/L; for pest or weed control at 100 µg/mL: 100 mg/L; for pest or weed control at 600 µg/mL: 600 mg/L
# In short: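 Aphids (15-30 per cabbage leaf disc) on moist filter paper were airbrush-sprayed at 10 psi, 0.5 mL, with compound from acetone:methanol (1:1) diluted in water with 0.1% tween 80. Held at 25±1 C, 60±5% RH; survivors counted after 48 hrs to give death rates.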
# cucumber gray mold = assay: fungicidal activity in vitro (inhibition rate) against cucumber gray mold; format: cell-based; conditions: 25 ppm, in vitro; read-out: inhibition rate against cucumber gray mold
# wheat powdery mildew = assay: protectant activity in vivo against wheat powdery mildew; conditions: Triticum aestivum, 168 h, protectant activity; for pest or weed control at 6.25 µg/mL: read-out: control effect against wheat powdery mildew (%), 6.25 mg/L; for pest or weed control at 25 µg/mL: read-out: control effect against wheat powdery mildew (%), 25 mg/L; for pest or weed control at 100 µg/mL: read-out: control effect against wheat powdery mildew (%), 100 mg/L; for pest or weed control at 400 µg/mL: read-out: control effect against wheat powdery mildew (%), 400 mg/L
# corn rust = assay: protectant activity in vivo against corn rust; conditions: Zea mays, 168 h, protectant activity; for pest or weed control at 6.25 µg/mL: read-out: control effect against corn rust (%), 6.25 mg/L; for pest or weed control at 25 µg/mL: read-out: control effect against corn rust (%), 25 mg/L; for pest or weed control at 100 µg/mL: read-out: control effect against corn rust (%), 100 mg/L; for pest or weed control at 400 µg/mL: read-out: control effect against corn rust (%), 400 mg/L
# rice blast = assay: microbe, parasite or virus in culture; format: cell-based; conditions: Pyricularia oryzae; for inhibition at 25 ppm: read-out: inhibition rate against rice blast, 25 ppm, in vitro; for inhibition at 8.3 ppm: read-out: inhibition rate against rice blast, 8.3 ppm, in vitro
# Diamond back moth = assay: insecticidal activity against diamond back moth, airbrush spray; format: in vivo; conditions: 72 h; for pest or weed control at 10 µg/mL: 10 mg/L; for pest or weed control at 100 µg/mL: 100 mg/L; for pest or weed control at 600 µg/mL: 600 mg/L
# In short: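 Airbrush leaf-disc spray test: both faces of 2 cm cabbage discs received 0.5 ml of test solution at 0.7 kg/cm^2. Solutions were made in acetone:methanol (1:1) and brought to concentration with 0.1% Tween 80 in water. Ten second-instar larvae per disc, triplicates, were held at 25° C and 60˜70% R.H., with mortality recorded at 72 hrs.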
# armyworm = assay: bioactivity test against armyworm, airbrush spray; format: in vivo; conditions: 72 h, read-out: Insecticidal activity against armyworm (%); for pest or weed control at 10 µg/mL: 10 mg/L; for pest or weed control at 600 µg/mL: 600 mg/L
# cucumber downy mildew = assay: protectant activity in vivo against cucumber downy mildew; conditions: Cucumis sativus, 168 h, protectant activity; for pest or weed control at 25 µg/mL: read-out: control effect against cucumber downy mildew (%), 25 mg/L; for pest or weed control at 50 µg/mL: read-out: control effect against cucumber downy mildew (%), 50 mg/L; for pest or weed control at 100 µg/mL: read-out: control effect against cucumber downy mildew (%), 100 mg/L; for pest or weed control at 400 µg/mL: read-out: control effect against cucumber downy mildew (%), 400 mg/L
Compound,pest or weed control at 10 µg/mL (carmine spider mite) [%],pest or weed control at 100 µg/mL (carmine spider mite) [%],pest or weed control at 600 µg/mL (carmine spider mite) [%],pest or weed control at 10 µg/mL [1] [%],pest or weed control at 600 µg/mL [1] [%],inhibition at 25 ppm (cucumber gray mold) [%],pest or weed control at 6.25 µg/mL (wheat powdery mildew) [%],pest or weed control at 25 µg/mL (wheat powdery mildew) [%],pest or weed control at 100 µg/mL (wheat powdery mildew) [%],pest or weed control at 400 µg/mL (wheat powdery mildew) [%],pest or weed control at 6.25 µg/mL (corn rust) [%],pest or weed control at 25 µg/mL (corn rust) [%],pest or weed control at 100 µg/mL (corn rust) [%],pest or weed control at 400 µg/mL (corn rust) [%],pest or weed control at 600 µg/mL (Diamond back moth) [%],pest or weed control at 600 µg/mL (armyworm) [%],pest or weed control at 25 µg/mL (cucumber downy mildew) [%],pest or weed control at 50 µg/mL (cucumber downy mildew) [%],pest or weed control at 100 µg/mL (cucumber downy mildew) [%],pest or weed control at 400 µg/mL (cucumber downy mildew) [%],further results
"CCc1ncnc(OCCc2ccc(Oc3ccccc3)cc2)c1Cl [CK13, reference compound]",0,0,100,83,100,0,0,0,0,40,0,0,0,100,67,86,0,0,25,85,pest or weed control at 5 µg/mL ([1]; 5 mg/L): 0%; pest or weed control at 100 µg/mL [1]: 98%; inhibition at 25 ppm (rice blast): 0%; pest or weed control at 10 µg/mL (Diamond back moth): 0%; pest or weed control at 100 µg/mL (Diamond back moth): 16%; pest or weed control at 10 µg/mL (armyworm): 0%; pest or weed control at 100 µg/mL (armyworm; 100 mg/L): 0%
"CCc1ncnc(OCCc2ccc(OCc3ccccc3)cc2)c1Cl [CK14, reference compound]",6,33,100,0,100,0,0,0,10,85,0,0,20,100,67,0,0,0,40,98,pest or weed control at 100 µg/mL [1]: 70%; inhibition at 8.3 ppm (rice blast): 0%; pest or weed control at 10 µg/mL (Diamond back moth): 0%; pest or weed control at 100 µg/mL (Diamond back moth): 10%
"CCc1ncnc(OC(CC)c2ccc(Oc3ccc(C(F)(F)F)cn3)cc2)c1Cl (stereo not shown) [CK15, reference compound]",0,0,59,0,69,0,0,10,85,95,0,30,85,95,17,0,0,0,15,95,pest or weed control at 100 µg/mL [1]: 40%; inhibition at 25 ppm (rice blast): 0%; pest or weed control at 10 µg/mL (Diamond back moth): 0%; pest or weed control at 100 µg/mL (Diamond back moth): 15%
"Cc1ncnc(NC(C)c2cccc3ccccc23)c1Cl (stereo not shown) [CK17, reference compound]",–,–,40,–,0,0,50,70,75,100,0,0,0,100,0,0,0,10,40,100,"inhibition at 2.8 ppm (rice blast; read-out: inhibition rate against rice blast, 2.8 ppm, in vitro): 0%; inhibition at 8.3 ppm (rice blast): 50%"
"CC(Cl)c1ncnc(NCCc2ccc(Oc3ccc(C(F)(F)F)cc3)cc2)c1Cl (stereo not shown) [CK20, reference compound]",–,72,100,–,–,< 50,0,0,30,100,0,0,70,100,57,–,0,0,10,100,inhibition at 25 ppm (rice blast): < 50%; pest or weed control at 10 µg/mL (armyworm): 0%
